According to US5574043A, “Certain [1,2,5-thiadiazol-4-yl]-1-azabicyclo [3.2.1]octane derivatives and their pharmaceutical uses” (Novo Nordisk A/S, priority 1995, dated 1996):
Structures can show the parent of a compound that is named as a salt.

molecular target: muscarinic acetylcholine receptors; test: Inhibition of specific binding of 3H-Oxotremorine-M (OXO BINDING) in vitro, rat cortex; set-up: species or system male Wistar rats; settings: rat cortex homogenate, 3H-Oxotremorine 1.0 nM, 30 min at 25° C., pH 7.4
Excerpt: The pharmacological properties of the compounds of the invention can be illustrated by determining their capability to inhibit the specific binding of ^3 H-Oxotremorine-M (^3 H-Oxo). Birdsdall N. J. M., Hulme E. C., and Burgen A. S. V. (1980). "The Character of Muscarinic Receptors in Different Regions of the Rat Brain". Proc. Roy. Soc. London (Series B) 207,1.
^3 H-Oxo labels muscarinic receptor in the CNS (with a preference for agonist domains of the receptors). Three different sites are labelled by ^3 H-Oxo. […] Using the present experimental conditions only the high and medium affinity sites are determined.
The inhibitory effects of compounds on ^3 H-Oxo binding reflects the affinity for muscarinic acetylcholine receptors.
All preparations are performed at 0°-4° C. unless otherwise indicated. Fresh cortex (0.1-1 g) from male Wistar rats (150-250 g) is homogenized for 5-10 s in 10 ml 20 mM Hepes pH: 7.4, with an Ultra-Turrax homogenizer. The homogenizer, is rinsed with 10 ml of buffer and the combined suspension centrifuged for 15 min at 40,000×g. The pellet is washed three times with buffer. In each step the pellet is homogenized as before in 2×10 ml of buffer and centrifuged for 10 min at 40,000×g.
The final pellet is homogenized in 20 mM Hepes pH: 7.4 (100 ml per g of original tissue) and used for binding assay. Aliquots of 0.5 ml is added 25 μl of test solution and 25 μl of ^3 H-Oxotremorine (1.0 nM, final concentration) mixed and incubated for 30 min at 25° C. Non-specific binding is determined in triplicate using arecoline (1 μg/ml, final concentration) as the test substance. After incubation samples are added 5 ml of ice-cold buffer and poured directly onto Whatman GF/C glass fibre filters under suction and immediately washed 2 times with 5 ml of ice-cold buffer. The amount of radioactivity on the filters are determined by conventional liquid scintillation counting. Specific binding is total binding minus non specific binding.
Test substances are dissolved in 10 ml water (if necessary heated on a steam bath for less than 5 minutes) at a concentration of 2.2 mg/ml.
The test value will be given as IC50 (the concentration (ng/ml) of the test substance which inhibits the specific binding of ^3 H-Oxo by 50%).
IC50 =(applied test substance concentration) [formula] where Co is specific binding in control assays and Cx is the specific binding in the test assay. (The calculations assume normal mass-action kinetics).

Structure (SMILES)	Inhibition in vitro OXO BINDING IC50 [ng/mL]
CCCCS(=O)(=O)c1nsnc1[C@@H]1CN2CCC[C@@H]1C2 (relative stereo) [Compound 115, Exo-6-(3-butylsulfonyl-1,2,5-thiadiazol-4-yl)-1-azabicyclo[3.2.1]octane oxalate]	0.50
FC(F)(F)C(F)(F)C(F)(F)COc1nsnc1[C@@H]1CN2CCC[C@@H]1C2 (relative stereo) [Compound 116, Exo-6-(3-(2,2,3,3,4,4,4-heptafluorobutyloxy)-1,2,5-thiadiazol-4-yl)-1-azabicyclo[3.2.1]octane oxalate]	1.4
COc1nsnc1[C@@H]1CN2CCC[C@@H]1C2 (relative stereo) [Compound 117, Exo-6-(3-methoxy-1,2,5-thiadiazol-4-yl)-1-azabicyclo[3.2.1]octane oxalate]	2.0
CCOc1nsnc1[C@@H]1CN2CCC[C@@H]1C2 (relative stereo) [Compound 118, Exo-6-(3-ethoxy-1,2,5-thiadiazol-4-yl)-1-azabicyclo[3.2.1]octane oxalate]	0.35
CCCOc1nsnc1[C@@H]1CN2CCC[C@@H]1C2 (relative stereo) [Compound 119, Exo-6-(3-propoxy-1,2,5-thiadiazol-4-yl)-1-azabicyclo[3.2.1]octane oxalate]	0.30
CCCCOc1nsnc1[C@@H]1CN2CCC[C@@H]1C2 (relative stereo) [Compound 120, Exo-6-(3-butoxy-1,2,5-thiadiazol-4-yl)-1-azabicyclo[3.2.1]octane oxalate]	0.28
CCCCCOc1nsnc1[C@@H]1CN2CCC[C@@H]1C2 (relative stereo) [Compound 121, Exo-6-(3-pentyloxy-1,2,5-thiadiazol-4-yl)-1-azabicyclo[3.2.1]octane oxalate]	0.32
CCCCCCOc1nsnc1[C@@H]1CN2CCC[C@@H]1C2 (relative stereo) [Compound 122, Exo-6-(3-hexyloxy-1,2,5-thiadiazol-4-yl)-1-azabicyclo[3.2.1]octane oxalate]	0.67
CC(C)CCCOc1nsnc1[C@@H]1CN2CCC[C@@H]1C2 (relative stereo) [Compound 123, Exo-6-(3-isohexyloxy-1,2,5-thiadiazol-4-yl)-1-azabicyclo[3.2.1]octane dioxalate]	0.47
c1ccc(OCCSc2nsnc2[C@H]2CN3CCC[C@H]2C3)cc1 (relative stereo) [Compound 133, Exo-6-(3-(2-phenoxyethylthio)-1,2,5-thiadiazol-4-yl)-1-azabicyclo[3.2.1]octane oxalate]	0.45
c1ccc(CSc2nsnc2[C@H]2CN3CCC[C@H]2C3)cc1 (relative stereo) [Compound 134, Exo-6-(3-benzylthio-1,2,5-thiadiazol-4-yl)-1-azabicyclo[3.2.1]octane oxalate]	0.47
CCCCSc1nsnc1C1CN2CCC1CC2.O=C(O)C(O)C(O)C(=O)O (single isomer, unassigned) [Compound 56, (+) 3-(3-Butylthio-1,2,5-thiadiazol-4-yl)-1-azabicyclo[2.2.2]octane (-)D-tartrate]	0.14
CCCCSc1nsnc1[C@@H]1CN2CCC[C@@H]1C2 (single isomer, unassigned) [Compound 111, (+)-Exo-6-(3-butylthio-1,2,5-thiadiazol-4-yl)-1-azabicyclo[3.2.1]octane (+) L-tartrate]	0.32
CCCCSc1nsnc1[C@@H]1CN2CCC[C@@H]1C2 (single isomer, unassigned) [Compound 112, (-)-Exo-6-(3-butylthio-1,2,5-thiadiazol-4-yl)-1-azabicyclo[3.2.1]octane (-) D-tartrate]	0.19
CCCSc1nsnc1[C@@H]1CN2CCC[C@@H]1C2 (single isomer, unassigned) [Compound 113, (+)-Exo-6-(3-propylthio-1,2,5-thiadiazol-4-yl)-1-azabicyclo[3.2.1]octane (+) L-tartrate]	0.26
CCCSc1nsnc1[C@@H]1CN2CCC[C@@H]1C2 (single isomer, unassigned) [Compound 114, (-)-Exo-6-(3-propylthio-1,2,5-thiadiazol-4-yl)-1-azabicyclo[3.2.1]octane (-) D-tartrate]	0.15

Structure (SMILES)	Inhibition in vitro OXO BINDING IC50 [ng/mL]
FC(F)(F)CCCSc1nsnc1[C@@H]1CN2CCC[C@@H]1C2 (single isomer, unassigned) [Compound 130, (+)-Exo-6-(3-(4,4,4-trifluoro-1-butylthio)-1,2,5-thiadiazol-4-yl)-1-azabicyclo[3.2.1]octane oxalate]	0.60
Clc1nsnc1C1(Cl)CN2CCC1CC2.O=C(O)C(=O)O (centres unmarked) [Compound 1, 3-Chloro-3-(3-chloro-1,2,5-thiadiazol-4-yl)-1-azabicyclo[2.2.2]-octane oxalate]	156
O=C(O)C(=O)O.OC1(c2nsnc2Cl)CN2CCC1CC2 (centres unmarked) [Compound 2, 3-(3-Chloro-1,2,5-thiadiazol-4-yl)-3-hydroxy-1-azabicyclo[2.2.2]octane oxalate]	270
COc1nsnc1C1(OC)CN2CCC1CC2.O=C(O)C(=O)O (centres unmarked) [Compound 3, 3-Methoxy-3-(3-methoxy-1,2,5-thiadiazol-4-yl)-1-azabicyclo[2.2.2]octane oxalate]	208
COc1nsnc1C1=CN2CCC1CC2.O=C(O)C(=O)O [Compound 4, 3-(3-Methoxy-1,2,5-thiadiazol-4-yl)-1-azabicyclo[2.2.2]oct-2-ene oxalate]	21
CCCCCCOc1nsnc1C1=CN2CCC1CC2.O=C(O)C(=O)O [Compound 5, 3-(3-Hexyloxy-1,2,5-thiadiazol-4-yl)-1-azabicyclo[2.2.2]oct-2-ene oxalate]	18
CCCCCCOc1nsnc1C1(OCCCCCC)CN2CCC1CC2.O=C(O)C(=O)O (centres unmarked) [Compound 6, 3-Hexyloxy-3-(3-hexyloxy-1,2,5-thiadiazol-4-yl)-1-azabicyclo[2.2.2]octane oxalate]	> 300
CCCCCCOc1nsnc1C1(O)CN2CCC1CC2.O=C(O)C(=O)O (centres unmarked) [Compound 7, 3-(3-Hexyloxy-1,2,5-thiadiazol-4-yl)-3-hydroxy-1-azabicyclo[2.2.2]octane oxalate]	13
Clc1nsnc1C1CN2CCC1CC2.O=C(O)C(=O)O (centres unmarked) [Compound 8, 3-(3-Chloro-1,2,5-thiadiazol-4-yl)-1-azabicyclo[2.2.2]octane oxalate]	5.2
CCOc1nsnc1C1CN2CCC1CC2.O=C(O)/C=C/C(=O)O (centres unmarked) [Compound 9, 3-(3-Ethoxy-1,2,5-thiadiazol-4-yl)-1-azabicyclo[2.2.2]octane fumarate]	0.69
CCCOc1nsnc1C1CN2CCC1CC2.O=C(O)/C=C/C(=O)O (centres unmarked) [Compound 10, 3-(3-Propoxy-1,2,5-thiadiazol-4-yl)-1-azabicyclo[2.2.2]octane fumarate]	1.7
CCCCCCOc1nsnc1C1CN2CCC1CC2.O=C(O)/C=C/C(=O)O (centres unmarked) [Compound 11, 3-(3-Hexyloxy-1,2,5-thiadiazol-4-yl)-1-azabicyclo[2.2.2]octane fumarate]	1.2
CCCCCSc1nsnc1C1CN2CCC1CC2.O=C(O)/C=C/C(=O)O (centres unmarked) [Compound 12, 3-(3-Pentylthio-1,2,5-thiadiazol-4-yl)-1-azabicyclo[2.2.2]octane fumarate]	0.45
CCCCSc1nsnc1C1CN2CCC1CC2.O=C(O)/C=C/C(=O)O (centres unmarked) [Compound 13, 3-(3-Butylthio-1,2,5-thiadiazol-4-yl)-1-azabicyclo[2.2.2]octane fumarate]	0.65
CCCCCCSc1nsnc1C1CN2CCC1CC2.O=C(O)/C=C/C(=O)O (centres unmarked) [Compound 14, 3-(3-Hexylthio-1,2,5-thiadiazol-4-yl)-1-azabicyclo[2.2.2]octane fumarate]	4.8

same assay, conditions: rat cortex homogenate, 3H-Oxotremorine 1.0 nM, 30 min at 25° C., pH 7.4; L-tartrate

Structure (SMILES)	Inhibition in vitro OXO BINDING IC50 [ng/mL]
CCCCSc1nsnc1C1CN2CCC1CC2.O=C(O)C(O)C(O)C(=O)O (single isomer, unassigned) [Compound 55, (-) 3-(3-Butylthio-1,2,5-thiadiazol-4-yl)-1-azabicyclo[2.2.2]octane (+) L-tartrate]	0.43
